Measurements as given in patent US8946205B2, “1,2,4-triazolo[4,3-a]pyridine derivatives and their use as positive allosteric modulators of mGluR2 receptors” (Janssen Pharmaceuticals, Inc., priority 2009, dated 2015).

Assays:
human mGluR2 receptor = molecular target: T1, human mGluR2 receptor (Homo sapiens, UniProt Q14416); test: [35S]GTPγS binding assay (PAM assay, membranes from CHO cells transfected with the human mGluR2 receptor); format: biochemical; conditions: in presence of glutamate at EC20; pEC50 = -log EC50 (mol/L); read-out: GTPγS-hR2 PAM pEC50 (converted)
T1 construct: expressed in transfected cells; host or cells: CHO cells (membranes)
T1 sequence (Q14416 19-872): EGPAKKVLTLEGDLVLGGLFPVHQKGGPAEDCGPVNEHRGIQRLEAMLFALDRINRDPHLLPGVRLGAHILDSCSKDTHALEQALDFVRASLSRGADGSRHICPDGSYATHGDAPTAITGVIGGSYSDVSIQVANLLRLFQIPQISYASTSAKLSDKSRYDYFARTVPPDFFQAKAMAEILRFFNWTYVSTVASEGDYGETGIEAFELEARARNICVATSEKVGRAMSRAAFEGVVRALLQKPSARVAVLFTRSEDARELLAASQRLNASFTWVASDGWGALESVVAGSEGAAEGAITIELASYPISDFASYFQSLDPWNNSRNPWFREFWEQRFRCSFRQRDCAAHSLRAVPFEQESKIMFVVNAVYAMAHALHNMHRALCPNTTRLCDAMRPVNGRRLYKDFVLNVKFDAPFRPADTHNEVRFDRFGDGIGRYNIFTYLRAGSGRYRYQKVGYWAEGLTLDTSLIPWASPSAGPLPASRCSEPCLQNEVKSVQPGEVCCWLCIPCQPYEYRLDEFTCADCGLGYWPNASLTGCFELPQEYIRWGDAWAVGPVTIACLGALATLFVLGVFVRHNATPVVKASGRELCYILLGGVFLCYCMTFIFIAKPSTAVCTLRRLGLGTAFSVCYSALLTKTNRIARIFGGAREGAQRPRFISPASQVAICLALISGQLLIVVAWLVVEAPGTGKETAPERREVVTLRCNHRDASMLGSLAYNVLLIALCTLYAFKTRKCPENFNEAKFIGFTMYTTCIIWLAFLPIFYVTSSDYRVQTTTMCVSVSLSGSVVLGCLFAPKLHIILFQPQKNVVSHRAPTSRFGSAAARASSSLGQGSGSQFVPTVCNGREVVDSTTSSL
Protocol: The [^35S]GTPγS binding assay is a functional membrane-based assay used to study G-protein coupled receptor (GPCR) function whereby incorporation of a non-hydrolysable form of GTP, [^35S]GTPγS (guanosine 5′-triphosphate, labelled with […] ^35S), is measured. The G-protein α subunit catalyzes the exchange of guanosine 5′-diphosphate (GDP) by guanosine triphosphate (GTP) and on activation of the GPCR by an agonist, [^35S]GTPγS, becomes incorporated and cannot be cleaved to continue the exchange cycle (Harper (1998) Current Protocols in Pharmacology 2.6.1-10, John Wiley & Sons, Inc.). […] Here we describe the use of the [^35S]GTPγS binding assay using membranes from cells transfected with the human mGluR2 receptor and adapted from Schaffhauser et al. ((2003) Molecular Pharmacology 4:798-810) for the detection of the positive allosteric modulation (PAM) properties of the compounds of this invention.
CHO-cells were cultured to pre-confluence and stimulated with 5 mM butyrate for 24 h, prior to washing in PBS, and then collected by scraping in homogenisation buffer (50 mM Tris-HCl buffer, pH 7.4, 4° C.). Cell lysates were homogenized briefly using an ultra-turrax homogenizer. The homogenate was centrifuged at 16,000 RPM (Sorvall RC-5C plus rotor SS-34) for 10 minutes and the supernatant discarded. The pellet was resuspended in 5 mM Tris-HCl, pH 7.4 and centrifuged again (18,000 RPM, 20 min, 4° C.). The final pellet was resuspended in 50 mM Tris-HCl, pH 7.4 and stored at −80° C. in appropriate aliquots before use. Protein concentration was determined by the Bradford method (Bio-Rad, USA) with bovine serum albumin as standard.
Measurement of mGluR2 positive allosteric modulatory activity of test compounds was performed as follows. Test compounds and glutamate were diluted in assay buffer containing 10 mM HEPES acid, 10 mM HEPES salt, pH 7.4, 100 mM NaCl, 3 mM MgCl2 and 10 μM GDP. Human mGlu2 receptor-containing membranes were thawed on ice and diluted in assay buffer supplemented with 14 μg/ml saponin. Membranes were pre-incubated with compound alone or together with a predefined (˜EC20) concentration of glutamate (PAM assay) for 30 min at 30° C. After addition of [^35S]GTPγS (f.c. 0.1 nM) microplates were shaken briefly and further incubated to allow [^35S]GTPγS incorporation on activation (30 minutes, 30° C.). Final assay mixtures contained 7 μg of membrane protein in 10 mM HEPES acid, 10 mM HEPES salt, pH 7.4, 100 mM NaCl, 3 mM MgCl2,10 μM GDP and 10 μg/ml saponin. Total reaction volume was 200 μl. Reactions were terminated by rapid filtration through Unifilter-96 GF/B filter plates (Packard, Meriden, Conn.) using a 96-well Packard filtermate harvester. Filters were washed 6 times with ice-cold 10 mM NaH2PO4/10 mM Na2HPO4, pH 7.4. Filters were then air-dried, and 40 μl of liquid scintillation cocktail (Microscint-O) was added to each well. Membrane-bound radioactivity was counted in a Microplate Scintillation and Luminescence Counter from Packard.
The concentration-response curves of representative compounds of the present invention—obtained in the presence of EC20 of mGluR2 agonist glutamate to determine positive allosteric modulation (PAM)—were generated using the Lexis software interface (developed at J&J). Data were calculated as % of the control glutamate response, defined as the maximal response that is generated upon addition of glutamate alone. Sigmoid concentration-response curves plotting these percentages versus the log concentration of the test compound were analyzed using non-linear regression analysis. The concentration producing half-maximal effect is then calculated as EC50. The pEC50 values below are calculated as the −log EC50 (wherein EC50 is expressed in mol/L). […]

Row | melting point [°C] | EC50 (human mGluR2 receptor) [nM] | Compound
1 | > 300 | 43.7 | FC(F)(F)Cc1nnc2c(Cl)c(-c3ccc4c(ccn4-c4ccccn4)c3)ccn12 [Compound 1]
2 | > 300 | 64.6 | Clc1c(-c2ccc3c(ccn3C3CCOCC3)c2)ccn2c(CC3CC3)nnc12 [Compound 2]
3 | 193.1 | 28.2 | FC(F)(F)c1c(-c2ccc3c(ccn3C3CCOCC3)c2)ccn2c(CC3CC3)nnc12 [Compound 3]
4 | – | 33.9 | FC(F)(F)Cc1nnc2c(Cl)c(-c3ccc4c(ccn4-c4ncccn4)c3)ccn12 [Compound 6]
5 | – | 11.5 | FC(F)(F)c1c(-c2ccc3c(ccn3-c3ncccn3)c2)ccn2c(CC3CC3)nnc12 [Compound 7]
6 | 233.5 | 25.1 | Clc1cc(-c2ccn3c(CC4CC4)nnc3c2Cl)cc2cc[nH]c12 [Compound 8]
7 | – | 158 | CC(C)(O)Cn1ccc2cc(-c3ccn4c(CC5CC5)nnc4c3Cl)ccc21 [Compound 9]
8 | > 300 | 52.5 | O[C@H]1CC[C@H](n2ccc3cc(-c4ccn5c(CC6CC6)nnc5c4Cl)ccc32)CC1 [Compound 10]
9 | – | 871 | Clc1c(-c2ccc3nn(Cc4cccnc4)cc3c2)ccn2c(CC3CC3)nnc12 [Compound 11]
10 | > 300 | 813 | Clc1c(-c2cccc3[nH]ccc23)ccn2c(CC3CC3)nnc12 [Compound 13]
11 | > 300 | 11 | FC(F)(F)c1c(-c2cc(Cl)c3[nH]ccc3c2)ccn2c(CC3CC3)nnc12 [Compound 14]
12 | > 300 | 53.7 | Clc1c(-c2ccc3c(ccn3-c3ncccn3)c2)ccn2c(CC3CC3)nnc12 [Compound 15]
13 | 197.1 | 67.6 | Clc1c(-c2ccc3c(ccn3-c3ccccn3)c2)ccn2c(CC3CC3)nnc12 [Compound 16]
14 | 235 | 288 | CCOCc1nnc2c(Cl)c(-c3ccc4c(ccn4-c4ccccn4)c3)ccn12 [Compound 18]
15 | – | 126 | CCOCc1nnc2c(Cl)c(-c3ccc4c(ccn4-c4ncccn4)c3)ccn12 [Compound 19]
16 | > 300 | 251 | Clc1c(-c2ccc3[nH]ccc3c2)ccn2c(CC3CC3)nnc12 [Compound 20]
17 | 137.2 | 23.4 | Cc1ccc(-n2ccc3cc(-c4ccn5c(CC6CC6)nnc5c4Cl)ccc32)cn1 [Compound 21, 8-Chloro-3-cyclopropylmethyl-7-[1-(2-methylpyridin-5-yl)-1H-indol-5-yl]-[1,2,4]triazolo[4,3-a]pyridine]
18 | 184.7 | 324 | Clc1c(-c2cnc3c(ccn3CC3CC3)c2)ccn2c(CC3CC3)nnc12 [Compound 22, 8-Chloro-3-cyclopropylmethyl-7-(1-cyclopropylmethyl-1H-pyrrolo[2,3-b]pyridin-5-yl)-[1,2,4]triazolo[4,3-a]pyridine]
19 | – | 95.5 | CCOCc1nnc2c(Cl)c(-c3cc(Cl)c4[nH]ccc4c3)ccn12 [Compound 23]
20 | > 300 | 1410 | FC(F)(F)c1c(-c2cnc3[nH]ccc3c2)ccn2c(CC3CC3)nnc12 [Compound 24]
21 | > 300 | 182 | FC(F)(F)c1c(-c2cnc3c(ccn3CC3CC3)c2)ccn2c(CC3CC3)nnc12 [Compound 25]
22 | 233.2 | 182 | CCOCc1nnc2c(Cl)c(-c3ccc4c(ccn4-c4cccnc4)c3)ccn12 [Compound 26]

Row | melting point [°C] | EC50 (human mGluR2 receptor) [nM] | Compound
23 | 188.9 | 56.2 | CCOCc1nnc2c(Cl)c(-c3ccc4c(ccn4-c4ccc(C)nc4)c3)ccn12 [Compound 27]
24 | 235.5 | 117 | Fc1cc(-c2ccn3c(CC4CC4)nnc3c2Cl)cc2cc[nH]c12 [Compound 28]
25 | 176.4 | 1260 | CCOCc1nnc2c(Cl)c(-c3ccc4[nH]ccc4c3)ccn12 [Compound 29]
26 | 182.4 | 33.9 | CCOCc1nnc2c(C(F)(F)F)c(-c3ccc4c(ccn4-c4cccnc4)c3)ccn12 [Compound 30]
27 | 163.1 | 17.4 | CCOCc1nnc2c(C(F)(F)F)c(-c3ccc4c(ccn4-c4ccc(C)nc4)c3)ccn12 [Compound 32]
28 | 200.1 | – | CCOCc1nnc2c(C(F)(F)F)c(-c3ccc4[nH]ccc4c3)ccn12 [Compound 33]
29 | 144.3 | – | FC(F)(F)c1c(-c2ccc3c(ccn3-c3cccnc3)c2)ccn2c(CC3CC3)nnc12 [Compound 34]
30 | 263.3 | 70.8 | Cc1ccc(-n2ccc3cc(-c4ccn5c(CC6CC6)nnc5c4C)ccc32)cn1 [Compound 35, 8-Methyl-3-cyclopropylmethyl-7-[1-(2-methylpyridin-5-yl)-1H-indol-5-yl]-[1,2,4]triazolo[4,3-a]pyridine]
31 | 204 | 9.33 | Cc1ccc(-n2ccc3cc(-c4ccn5c(CC6CC6)nnc5c4C(F)(F)F)ccc32)cn1 [Compound 36]
32 | > 300 | 39.8 | Cc1ccc(-n2ccc3cc(-c4ccn5c(CC6CC6)nnc5c4C4CC4)ccc32)cn1 [Compound 37]
33 | > 300 | 17 | Cc1ccc(-n2ccc3cc(-c4ccn5c(CC6CC6)nnc5c4C(F)(F)F)cc(F)c32)cn1 [Compound 38]
34 | > 300 | 126 | Clc1c(-c2cnc3c(ccn3CC3CCC3)c2)ccn2c(CC3CC3)nnc12 [Compound 39]
35 | > 300 | 407 | Cc1c(-c2cnc3c(ccn3CC3CC3)c2)ccn2c(CC3CC3)nnc12 [Compound 40]
36 | > 300 | 603 | Clc1c(-c2cnc3c(ccn3-c3ccccn3)c2)ccn2c(CC3CC3)nnc12 [Compound 41]
37 | > 300 | 28.8 | Fc1cnccc1-n1ccc2cc(-c3ccn4c(CC5CC5)nnc4c3Cl)ccc21 [Compound 42, 8-Chloro-3-cyclopropylmethyl-7-[1-(3-fluoro-pyridin-4-yl)-1H-indol-5-yl]-[1,2,4]triazolo[4,3-a]pyridine]
38 | > 300 | 16.6 | FC(F)(F)c1c(-c2ccc3c(ccn3-c3ccncc3)c2)ccn2c(CC3CC3)nnc12 [Compound 43]
39 | > 300 | 66.1 | Clc1c(-c2ccc3c(ccn3-c3ccncc3)c2)ccn2c(CC3CC3)nnc12 [Compound 44]
40 | > 300 | 8.13 | Cc1cc(-n2ccc3cc(-c4ccn5c(CC6CC6)nnc5c4C(F)(F)F)ccc32)ccn1 [Compound 46]
41 | > 300 | 39.8 | Cc1cc(-n2ccc3cc(-c4ccn5c(CC6CC6)nnc5c4Cl)ccc32)ccn1 [Compound 47]
42 | 195.6 | 46.8 | Fc1cc(-c2ccn3c(CC4CC4)nnc3c2Cl)cc2ccn(-c3cccnc3)c12 [Compound 48]
43 | 108.5 | 174 | CCOCc1nnc2c(C)c(-c3ccc4c(ccn4-c4ccc(C)nc4)c3)ccn12 [Compound 49]
